Each structure is given as a SMILES string.

In this assay the test system is Saccharomyces cerevisiae. In words: Antifungal activity against DNA-damage repair genes deficient Saccharomyces cerevisiae RS 321 after 48 hrs by mechanism based bioassay. The format is functional.
Compound `CC(=O)OCC(COC(C)=O)=C1C=C[C@]2(C)C/C=C(\C)CC[C@@H]3O[C@@]3(C)CC[C@@H]12` had an IC12 greater than 3000 µg/mL.

For the compound `CC(C)=C1C(=O)C[C@]2(C)C/C=C(\C)CC[C@@H]3O[C@@]3(C)CC[C@@H]12`, the IC12 came out at 1500 µg/mL.

`C/C1=C\C[C@@]2(C)C(=O)C=C(C(C)C)[C@@H]2CC[C@]2(C)O[C@H]2CC1` came in with an IC12 of 2600 µg/mL.

With `C=C(C)C1C/C=C(\C)CC[C@H](O)[C@@]2(C)CCC=C(CC1)C(=O)O2` (stereo partly specified), the IC12 was greater than 3000 µg/mL.

In turn, `CC(=O)OC/C1=C\C[C@@]2(C)CC(=O)C(=C(C)C)[C@@H]2CC[C@]2(C)O[C@H]2CC1` yielded an IC12 of 1800 µg/mL.

Compound `CC(=O)O[C@H]1C/C(C)=C/C[C@@]2(C)CC(=O)C(=C(C)C)[C@@H]2CC[C@]2(C)O[C@@H]12` yielded an IC12 greater than 3000 µg/mL.

These data come from ChEMBL document CHEMBL1159279, “Mechanism-based antitumor screening of Caribbean marine organisms: isolation and structure determination of novel diterpenoids from the gorgonian Eunicea tourneforti” (1995).
